Assay [1] deals with T1, RNA-binding protein pos-1 (Caenorhabditis elegans, UniProt G5EF15).
T1 sequence (G5EF15 whole entry): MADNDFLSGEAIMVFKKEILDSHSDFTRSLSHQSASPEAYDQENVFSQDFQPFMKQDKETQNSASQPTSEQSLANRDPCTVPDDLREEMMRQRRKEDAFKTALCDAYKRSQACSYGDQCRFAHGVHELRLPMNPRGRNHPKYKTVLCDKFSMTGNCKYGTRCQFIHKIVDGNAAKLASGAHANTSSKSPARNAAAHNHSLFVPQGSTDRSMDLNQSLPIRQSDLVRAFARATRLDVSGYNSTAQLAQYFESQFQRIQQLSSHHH
Put plainly: disruptors of C. elegans POS-1 RNA interaction – biochemical, fluorescence polarization, dose response (AID 1964).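 Further: purified POS-1 fused to maltose binding protein made in E. coli; potency of compounds blocking POS-1 binding to fluorescent RNA.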 On the technique in general: In fluorescence polarisation assays a small probe gives low polarisation when free and higher when bound to something large.

In assay [2] the target is T2, Zinc finger protein mex-5 (Caenorhabditis elegans, UniProt Q9XUB2).
T2 sequence (Q9XUB2 whole entry): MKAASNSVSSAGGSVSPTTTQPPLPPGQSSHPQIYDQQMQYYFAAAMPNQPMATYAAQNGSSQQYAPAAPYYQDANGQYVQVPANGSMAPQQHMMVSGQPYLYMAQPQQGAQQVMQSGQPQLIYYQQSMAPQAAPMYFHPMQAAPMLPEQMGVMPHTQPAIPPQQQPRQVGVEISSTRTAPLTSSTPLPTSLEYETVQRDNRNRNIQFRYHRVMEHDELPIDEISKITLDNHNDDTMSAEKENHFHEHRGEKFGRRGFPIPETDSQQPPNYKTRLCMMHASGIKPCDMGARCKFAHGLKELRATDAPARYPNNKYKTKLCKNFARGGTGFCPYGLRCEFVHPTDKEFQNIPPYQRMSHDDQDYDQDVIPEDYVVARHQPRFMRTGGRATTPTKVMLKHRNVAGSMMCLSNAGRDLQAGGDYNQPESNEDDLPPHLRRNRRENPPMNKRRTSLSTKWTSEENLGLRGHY
Nature of the assay: potency of MEX-5 RNA-binding blockers – biochemical, C. elegans, fluorescence polarization, dose response (AID 1960).

A further assay deals with Cytochrome P450 2C19 (Homo sapiens, UniProt P33261). Nature of the assay: Cytochrome panel assay with activity outcomes. Panel member name: p450-cyp2c19 Compounds with AC50 equal or less than 10 uM are considered active. Format: functional. The following applies: read-out: AC50.
Another assay addresses Cytochrome P450 2C9 (Homo sapiens, UniProt P11712).
A further assay concerns H9c2. Nature of the assay: cells. Format: functional, cell-based. The following applies: Rattus norvegicus, H9c2, Myocardium.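 Further: confirmatory concentration-response retest of ultra-high-throughput screening hits for modulation of myocardial damage; cell death induced by hydrogen peroxide oxidative stress; compound pretreatment for 60 min then peroxide exposure for 2 h; potency is for protecting the cells against peroxide damage rather than for killing them.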
In assay [3] the target is T3, Replicative DNA helicase DnaB (Mycobacterium tuberculosis, UniProt P9WMR3).
T3 sequence (P9WMR3 whole entry): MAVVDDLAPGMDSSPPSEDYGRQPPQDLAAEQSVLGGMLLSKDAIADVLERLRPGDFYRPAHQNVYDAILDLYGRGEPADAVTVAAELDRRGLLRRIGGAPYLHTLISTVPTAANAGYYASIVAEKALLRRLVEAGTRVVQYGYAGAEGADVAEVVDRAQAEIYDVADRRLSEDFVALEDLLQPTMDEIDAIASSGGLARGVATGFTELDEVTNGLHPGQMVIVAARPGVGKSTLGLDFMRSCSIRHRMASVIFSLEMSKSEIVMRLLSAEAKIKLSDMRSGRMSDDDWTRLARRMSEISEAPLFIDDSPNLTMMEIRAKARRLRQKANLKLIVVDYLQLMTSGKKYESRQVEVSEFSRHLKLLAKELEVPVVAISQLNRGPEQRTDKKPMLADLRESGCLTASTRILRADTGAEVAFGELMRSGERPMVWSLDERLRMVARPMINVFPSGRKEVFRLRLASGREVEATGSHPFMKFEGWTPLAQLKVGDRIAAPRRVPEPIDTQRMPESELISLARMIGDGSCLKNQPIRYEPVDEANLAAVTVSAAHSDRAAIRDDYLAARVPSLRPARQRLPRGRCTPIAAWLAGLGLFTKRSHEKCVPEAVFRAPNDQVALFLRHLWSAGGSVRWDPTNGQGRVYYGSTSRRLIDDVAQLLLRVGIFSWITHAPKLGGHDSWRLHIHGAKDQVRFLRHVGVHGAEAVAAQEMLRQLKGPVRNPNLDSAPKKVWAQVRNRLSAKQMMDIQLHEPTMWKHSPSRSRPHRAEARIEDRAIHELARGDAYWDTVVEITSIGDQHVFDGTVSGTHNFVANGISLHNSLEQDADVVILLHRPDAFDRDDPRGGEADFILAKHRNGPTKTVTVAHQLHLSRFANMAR
Put plainly: DnaB intein splicing inhibitors, dose response, biochemical, cell-free fluorescence (AID 449749). Format: functional.

For the next assay, the target named is T4, Protein RecA (Mycobacterium tuberculosis, UniProt P9WHJ3).
T4 sequence (P9WHJ3 whole entry): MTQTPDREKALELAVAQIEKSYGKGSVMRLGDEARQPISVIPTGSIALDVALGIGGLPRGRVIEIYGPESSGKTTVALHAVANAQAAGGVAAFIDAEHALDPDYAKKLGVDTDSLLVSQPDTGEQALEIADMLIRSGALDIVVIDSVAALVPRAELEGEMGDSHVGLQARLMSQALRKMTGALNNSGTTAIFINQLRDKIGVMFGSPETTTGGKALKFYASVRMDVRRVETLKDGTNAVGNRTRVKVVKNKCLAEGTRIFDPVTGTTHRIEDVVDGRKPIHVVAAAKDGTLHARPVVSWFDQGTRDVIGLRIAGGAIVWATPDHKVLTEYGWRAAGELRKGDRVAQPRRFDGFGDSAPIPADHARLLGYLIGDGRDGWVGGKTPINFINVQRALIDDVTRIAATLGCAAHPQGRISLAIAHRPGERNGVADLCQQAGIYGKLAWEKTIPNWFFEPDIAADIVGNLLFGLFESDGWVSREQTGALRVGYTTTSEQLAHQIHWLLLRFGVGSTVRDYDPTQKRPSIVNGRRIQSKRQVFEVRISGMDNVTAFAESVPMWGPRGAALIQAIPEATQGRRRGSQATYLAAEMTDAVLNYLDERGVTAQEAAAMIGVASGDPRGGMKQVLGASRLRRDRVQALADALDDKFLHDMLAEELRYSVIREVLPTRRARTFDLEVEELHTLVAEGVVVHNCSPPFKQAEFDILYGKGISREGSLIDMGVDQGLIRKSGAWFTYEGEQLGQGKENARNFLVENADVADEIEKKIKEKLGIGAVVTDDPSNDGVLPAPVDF
Nature of the assay: Fluorescence Cell-Free Homogeneous Dose Retest to Identify Inhibitors of RecA-Intein Splicing Activity. [Related pubchem assays (depositor defined):AID2097, AID2223, AID489010, AID492950]. Format: functional.

Assay [4] in a line: Luminescence Cell-Based Dose Response HTS to Identify Activators of Luciferase Translation or Activity in H4 […] Cells. [Related pubchem assays: 1829 (Project Summary), 1814 (Primary HTS)]. Format: functional.
Another assay has as its system H4. Nature of the assay: Luminescence Cell-Based Dose Response HTS to Identify Activators of 5'UTR Stem-Loop Driven Prion Protein mRNA Translation in H4 Neuroglioblastoma Cells. [Related pubchem assays: 1829 (Project Summary), 1814 (Primary HTS)]. The following applies: Homo sapiens. It is filed as functional.
Assay [5] concerns the target T5, Corticotropin-releasing factor receptor 2/Corticotropin-releasing factor-binding protein (Homo sapiens, UniProt P24387+Q13324).
T5 sequence (Q13324 whole entry): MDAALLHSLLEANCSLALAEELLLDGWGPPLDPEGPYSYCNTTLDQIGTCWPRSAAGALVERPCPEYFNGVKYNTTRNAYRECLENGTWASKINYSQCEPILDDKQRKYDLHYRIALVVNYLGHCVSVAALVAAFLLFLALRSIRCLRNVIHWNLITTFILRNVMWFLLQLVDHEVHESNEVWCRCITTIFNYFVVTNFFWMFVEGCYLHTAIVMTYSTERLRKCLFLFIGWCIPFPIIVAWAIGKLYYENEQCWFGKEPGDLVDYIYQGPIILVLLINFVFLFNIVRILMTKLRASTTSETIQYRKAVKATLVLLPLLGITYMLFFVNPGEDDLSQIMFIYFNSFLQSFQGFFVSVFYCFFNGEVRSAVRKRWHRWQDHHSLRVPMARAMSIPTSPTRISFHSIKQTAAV
T5 sequence (P24387 whole entry): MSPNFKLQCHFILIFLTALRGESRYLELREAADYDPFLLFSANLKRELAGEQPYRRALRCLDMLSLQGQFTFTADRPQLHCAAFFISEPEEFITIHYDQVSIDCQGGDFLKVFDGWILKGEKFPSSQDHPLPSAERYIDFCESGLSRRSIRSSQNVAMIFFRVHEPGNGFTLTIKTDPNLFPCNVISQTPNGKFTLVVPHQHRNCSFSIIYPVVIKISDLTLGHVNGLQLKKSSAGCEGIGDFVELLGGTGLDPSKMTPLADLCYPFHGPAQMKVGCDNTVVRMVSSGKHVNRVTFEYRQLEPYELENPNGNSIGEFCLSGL
Nature of the assay: activators of CRF receptor 2 with binding protein – uHTS hits, confirmation (AID 602473). It is filed as functional. The conditions noted are these: read-out: EC50_Mean.

Usually AC50 stands for the concentration giving half of the maximal activity seen. The term IC50 denotes the concentration needed to halve the response being measured.

Structures are written as SMILES. Activity calls are given as the source filed them. A value given as a limit tells only on which side of the number the result lay.

Sequence of Cytochrome P450 2C19 (P33261 whole entry): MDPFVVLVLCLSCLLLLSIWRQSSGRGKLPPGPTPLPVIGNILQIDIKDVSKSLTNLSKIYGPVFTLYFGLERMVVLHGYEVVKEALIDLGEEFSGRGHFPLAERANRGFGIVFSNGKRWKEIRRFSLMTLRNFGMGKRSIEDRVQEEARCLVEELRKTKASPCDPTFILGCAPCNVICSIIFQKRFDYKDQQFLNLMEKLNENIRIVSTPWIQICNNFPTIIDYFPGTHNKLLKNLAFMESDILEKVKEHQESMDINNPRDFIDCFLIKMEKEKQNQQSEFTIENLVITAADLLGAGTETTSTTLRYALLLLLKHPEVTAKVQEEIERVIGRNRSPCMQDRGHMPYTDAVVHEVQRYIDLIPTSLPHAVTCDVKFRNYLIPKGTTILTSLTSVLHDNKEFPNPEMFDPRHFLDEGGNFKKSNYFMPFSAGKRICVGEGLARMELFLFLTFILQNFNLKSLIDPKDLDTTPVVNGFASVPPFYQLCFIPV
Sequence of Cytochrome P450 2C9 (P11712 whole entry): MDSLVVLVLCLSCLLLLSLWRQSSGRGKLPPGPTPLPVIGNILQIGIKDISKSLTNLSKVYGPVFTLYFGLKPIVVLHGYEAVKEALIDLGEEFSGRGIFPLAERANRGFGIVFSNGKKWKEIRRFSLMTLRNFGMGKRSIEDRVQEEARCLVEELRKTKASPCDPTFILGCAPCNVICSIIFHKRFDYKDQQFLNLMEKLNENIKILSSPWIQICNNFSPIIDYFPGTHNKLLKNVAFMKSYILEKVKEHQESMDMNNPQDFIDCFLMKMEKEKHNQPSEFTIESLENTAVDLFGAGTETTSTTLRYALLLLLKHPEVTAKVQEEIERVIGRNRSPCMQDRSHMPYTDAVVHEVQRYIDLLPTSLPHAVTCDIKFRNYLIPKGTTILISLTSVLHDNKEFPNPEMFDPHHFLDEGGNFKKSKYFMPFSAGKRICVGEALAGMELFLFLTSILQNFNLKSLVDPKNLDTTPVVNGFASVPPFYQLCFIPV

Turning to `Fc1ccc2c(c1)C1C=CCC1C(c1cc3c(cc1Br)OCO3)N2` (configuration not stated), the EC50 in assay [1] and in assay [2] was > 300 µM (not active) each time. The AC50 is 0.316 µM (inconclusive) at Cytochrome P450 2C19 and 1.78 µM (inconclusive) on Cytochrome P450 2C9.

`O=C(CCc1nc(O)c2ccccc2n1)Nc1ccc(F)c([N+](=O)[O-])c1`: the IC50 with H9c2 is > 79 µM (inactive).

Take `Cc1ccc(-c2nnc(O)c3ccccc23)cc1S(=O)(=O)Nc1ccccc1`: in the assay on H9c2, the IC50 was 21.3 µM (active).

For `CN1CC=C2C(C#N)=C(N)C(C#N)(C#N)C(c3ccncc3)C2C1` (configuration not stated), the EC50 was 52.9 µM (inconclusive) in assay [1] and 7.73 µM (active) in assay [2].

For the compound `Nc1n[nH]c(Sc2ccc([N+](=O)[O-])cc2[N+](=O)[O-])n1`, the EC50 in assay [1] is 85.7 µM (active); in [2], 30.1 µM (active).

In the case of `Cc1n[nH]c2c1C(c1c(C)nn(-c3ccccc3)c1C)C(C#N)=C(N)O2` (configuration not stated), the AC50 in assay [3] is 18.6 µM (active). For the same compound, the EC50 at Protein RecA was 12.5 µM (active).

For the compound `COc1cccc2cc(-c3cc(=O)oc4ccc(OCC(C)=O)cc34)oc12`, the IC50 in the assay with H9c2 is > 79 µM (inactive).

`CCCCn1c(N)c(Br)c(=O)[nH]c1=O`: the IC50 with H9c2 was > 79 µM (inactive).

`Cc1n[nH]c(N=Nc2ccc(O)cc2)n1`: the EC50 in [1] was > 300 µM (not active); in assay [2], 4.83 µM (active).

As for `CCOC1(OCC)C(c2ccc(Cl)cc2)C(C#N)(C#N)C1(OCC)OCC` (configuration not stated), the AC50 in assay [3] was 148 µM (active). Besides, the EC50 on Protein RecA was > 380 µM (inconclusive).

Regarding `CC(C)(C)c1cnnn1-c1ccc(C(=O)CCl)cc1`, in assay [3], the AC50 is 4.17 µM (active). Further, at Protein RecA, the EC50 is 2.89 µM (active).

Regarding `CCOC(=O)/C(C#N)=C1/SC(C)C(=O)N1c1ccc(Br)cc1` (configuration not stated), the AC50 in assay [3] was 21 µM (active). At Protein RecA, the EC50 is 11.1 µM (active).

As to `O=C(CCC(=O)N1CCN(C2CCCCC2)CC1)Nc1nnc(C(F)(F)F)s1`, the IC50 in the assay on H9c2 was > 79 µM (inactive).

Turning to `CCCCc1ccc(/C=C2\C(=O)ON=C2c2ccccc2)s1`, the EC50 in assay [1] was 68 µM (active); in assay [2], 87.7 µM (active).

On to `CCOC(=O)Cc1nc2ccccc2n(CC#N)c1=O`, for which the EC50 in assay [1] and in assay [2] was > 300 µM (not active) each time.

Take `CCOC(=O)[C@]1(C#N)[C@@H]2C=CC(C(C)=O)=CN2[C@@H](C(N)=O)[C@@H]1c1ccsc1`: the figures for the EC50 in assay [1] and in assay [2] were 2.5 µM (active) and 12.3 µM (active), respectively.

In the case of `Cc1ccc(N(CC(=O)Nc2ccc(-c3nc4ccc(C)cc4s3)cc2)S(C)(=O)=O)cc1`, the EC50 in assay [4] is 1.19 µM (active); in the assay with H4, > 120 µM (not active).

With `Cc1nc(N2CCN(Cc3ccccc3)CC2)c(C#N)c2c1COC(C)(C)C2`, the results for the EC50 in assay [1] and in [2] were 94.5 µM (active) and 108 µM (active), respectively.

`NS(=O)(=O)c1ccc(N/C=C2/C(=O)N(c3nccs3)C(=O)c3ccccc32)cc1`: the IC50 in the assay with H9c2 is > 79 µM (inactive).

With `O=C(NCc1ccc2c(c1)OCO2)c1nnc(O)c2ccccc12`, the IC50 in the assay on H9c2 was > 79 µM (inactive).

Regarding `CCOC(=O)C1CCN(c2cc3c(cc2NC(=O)c2ccc(F)cc2)n(C)c(=O)n3C)CC1`, in the assay on H9c2, the IC50 is 16.7 µM (active).

Regarding `Cc1ccc(C(=O)C2C(c3ccc(-c4ccccc4[N+](=O)[O-])o3)NC(=O)NC2(O)C(F)(F)F)cc1` (configuration not stated), the AC50 in assay [3] is 5.13 µM (active). In addition, the EC50 at Protein RecA was 11.6 µM (active).

As for `C/C(=N\NC(=O)c1nnn(-c2nonc2N)c1CSc1ccc(C)cc1)c1cccnc1`, in the assay on H9c2, the IC50 is > 79 µM (inactive).

Regarding `CCOc1ccc(NC(=O)CN(C)C(=O)Cc2nnc(O)c3ccccc23)cc1OCC`, the IC50 with H9c2 was > 79 µM (inactive).

On to `COc1ccc(OC)c(/C=c2\sc3nc(-c4cccs4)nn3c2=O)c1`, for which the EC50 in [1] is > 300 µM (not active); in assay [2], > 300 µM (inconclusive); in assay [5], 6.32 µM (active).

Consider `CCOC(=O)N1CCC(c2cc(=O)n(-c3ccccc3)[nH]2)CC1`, for which the AC50 in [3] was 3.66 µM (active). The EC50 at Protein RecA is 2.51 µM (active).

Turning to `CCO/C(C)=N/n1c2nc3ccccc3nc2c2c(=O)n(C3CCCC3)c(C)nc21`, the EC50 in [1] and in assay [2] was > 300 µM (not active) throughout.

The values above are taken from ChEMBL document CHEMBL1201862, “PubChem BioAssay data set” (2004).
